# From publication PMC9935382, “Sorting nexin-dependent therapeutic targeting of oncogenic epidermal growth factor receptor” (Cancer Gene Therapy, 2022)
# “Also recorded” adds a separate entry of the source.
# Columns and labels:
# [1] = system: nuclear EGFR in MDA-MB-468 cells; assay: Nuclear EGFR by subcellular fractionation; assay type: cell-based; conditions: serum starved, 20 ng/mL EGF and peptide, 2 h; subcellular fractionation and immunoblot
# Procedure: Cells were trypsinized and washed with PBS, followed by centrifugation at 100 g (4 °C) for 5 minutes. The cell pellet was resuspended in ice-cold cytosolic fraction buffer (150 mM NaCl, 50 mM HEPES pH 7.4, 25 ug/mL digitonin, with Complete protease inhibitors (Roche) and phosphatase inhibitors (2.0 mM sodium orthovanadate, 10.0 μM ammonium molybdate and 10.0 mM sodium fluoride) and tumbled at 4 °C for 10 minutes, followed by centrifuged at 2000 g, 4 °C for 10 minutes and the cytosolic fraction transferred retained for analysis as the cytosolic fraction. The pellet was then washed twice in ice-cold PBS, resuspended in membrane fraction buffer (150 mM NaCl, 50 mM HEPES pH 7.4, 1% NP-40, with protease and phosphatase inhibitors) and incubated on ice for 30 minutes. […]
# Lysates were prepared as described, protein concentrations determined by BCA assay (Pierce) and resolved via standard SDS-PAGE [18]. Gels were transferred to either PVDF (Immobilon P or Immobilon FL) membrane and probed with the indicated antibodies and analyzed by either HRP-linked secondaries (Pierce) or IRDye secondaries (Li-Cor), followed by development in Dura Signal (Pierce) or IR (Licor). […]
# Cells were then fractionated and verified by HSP90 cytosolic protein, Bap31 membrane protein, or HDAC nuclear protein. […] After the second week, the number of secondary mammospheres were counted.
# [2] = Body weight and toxicity in WAP-TGFα mice; assay type: in vivo; conditions: 10 μg/g IV 3X/week, up to 4 weeks
# Description: The transgenic mouse line WAP-TGFα (The Jackson Laboratory; Tg(WapTgfa)215Bri) were back crossed to C57BL/6 J background (N8). WAP-TGFα heterozygous males were bred with C57BL/6 J females to generate study animals and offspring were genotyped using primers against the WAP-TGFα transgene. WAP-TGFα heterozygous females were housed continuously with C57Bl/6 J males to induce pregnancy, resulting in transgene expression. […] To ensure randomized treatment arms we added mice to alternating treatment arms as they developed tumors, starting with the control cPTD4 arm. When a second mouse from the same litter developed a tumor, that animal was added to the opposite arm from its litter mate. The researchers were not blinded to the treatment arms. […] Once entered, mice were weighed, tumors measured, and injections given intravenously at 10 μg/g body weight 3x/week for 4 weeks. […] Upon sacrifice, all tumors were collected and fixed in 10% formalin; a portion of each tumor was homogenized in tissue lysis buffer to form tissue protein lysates. Tissues were paraffin-embedded and sectioned by the Tissue Acquisition and Cell Molecular Analysis Shared Resource at the University of Arizona Cancer Center. […]
# When tumors reached >100 mm^3, IV injections began at 3X/week, 10 μg/g body weight and tumors were measured 3X/week with calipers. […]
# Supplementary Figure 2. […] B. Tumors were measured with calipers 3X/week. […]
# CHO cells = assay: MTT cell viability, CHO; assay type: cell-based, Chinese hamster; conditions: CHO cells lack EGFR expression, 3 days
# Procedure: (§1) 2 × 10^3 cells were plated per well in a 96 well plate and left to adhere overnight. The following day, drug treatments were started and continued for 3 days. To measure the viability of the remaining cell population, 10% 3-(4,5-dimethylthiazol-2-yl)-2,5-diphenyltetrazolium (MTT) in media was added and incubated for 2 hours and conversion of MTT to formazan at 540 nm using a biotech Synergy LX plate reader.
# (§2) A–G Cells were plated in a 96-well plate at 2000 cells per well. […] Cell viability was then measured with an MTT assay, viability of treated cells were compared with the vehicle control. H MDA-MB-468 cells were plated and incubated+/− IPTG for 2 days prior to drug treatment to induce expression of an EGFR-targeted shRNA.
# Supplementary Figure 1. A. BT20 triple negative breast cancer cells were treated with SNX1.1, 1.2, or 1.3 for 3 days and their viability was measured via MTT analysis. B. CHO cells were treated with PTD4 or SNX1.3 for 3 days and their viability was measured via MTT analysis.
# [3] = Potential toxicity in C57Bl/6 J female mice; assay type: in vivo, mouse; conditions: 5.0 or 10.0 μg/g body weight IV 3X/week, 2 weeks, cSNX1.3 vs cPTD4; data not shown
# MDA-MB-231 cells = assay: MTT cell viability, MDA-MB-231; assay type: cell-based; conditions: 3 days
# Procedure: as §1, §2
# [4] = system: mammary fat pad and tumors of WAP-TGFα mice; assay: Histopathology (H+E) of WAP-TGFα mouse tissues; assay type: in vivo; conditions: for Tumor pathology: tumor site in value
# Description: The transgenic mouse line WAP-TGFα (The Jackson Laboratory; Tg(WapTgfa)215Bri) were back crossed to C57BL/6 J background (N8). WAP-TGFα heterozygous males were bred with C57BL/6 J females to generate study animals and offspring were genotyped using primers against the WAP-TGFα transgene. WAP-TGFα heterozygous females were housed continuously with C57Bl/6 J males to induce pregnancy, resulting in transgene expression. […] To ensure randomized treatment arms we added mice to alternating treatment arms as they developed tumors, starting with the control cPTD4 arm. When a second mouse from the same litter developed a tumor, that animal was added to the opposite arm from its litter mate. The researchers were not blinded to the treatment arms. […] Once entered, mice were weighed, tumors measured, and injections given intravenously at 10 μg/g body weight 3x/week for 4 weeks. […] Upon sacrifice, all tumors were collected and fixed in 10% formalin; a portion of each tumor was homogenized in tissue lysis buffer to form tissue protein lysates. Tissues were paraffin-embedded and sectioned by the Tissue Acquisition and Cell Molecular Analysis Shared Resource at the University of Arizona Cancer Center. The University of Arizona IACUC committee performs oversite of animal experimental protocols with coordination from a veterinarian in compliance with AAALAC.
# Mice were bred continuously to induce transgene expression and palpated weekly for tumor formation. […] A Changes in tumor size from entry into study until end of study are shown for each individual tumor, (*) indicate tumors that entered the study at size greater than 500 mm^3, all other tumors entered the study at ~100 mm^3. B a Kaplan-Meier survival curve was generated showing when mice were sacrificed by either reaching tumor burden (2000 mm^3) or the end of the study (p = 0.0002). C Upon sacrifice tumors were harvested and fixed in 10% formalin and embedded in paraffin. FFPE blocks were sectioned at […] and stained with hematoxylin and eosin and imaged at 20x. D Protein lysates were generated from tumors upon the sacrifice and probed for the indicated proteins.
# Supplementary Figure 3. Upon sacrifice, tissues were harvested and fixed in 10% formalin. Tissues were embedded, sectioned, and stained with H+E by the Tissue Acquisition and Cell Molecular Analysis Shared Resource (TACMASR) at the University of Arizona Cancer Center. H+E slides were then sent to the UC Davis pathology lab for pathological analysis.
smiles,measurement,setting,value
CC[C@H](C)[C@H](NC(=O)[C@@H](NC(=O)[C@H](Cc1c[nH]cn1)NC(=O)[C@H](CC(N)=O)NC(=O)[C@H](CCCCN)NC(=O)[C@H](C)NC(=O)[C@H](CCCNC(=N)N)NC(=O)[C@H](C)NC(=O)[C@H](CCC(N)=O)NC(=O)[C@H](CCCNC(=N)N)NC(=O)[C@H](C)NC(=O)[C@H](C)NC(=O)[C@H](C)NC(=O)[C@H](CCCNC(=N)N)NC(=O)[C@H](C)NC(=O)[C@H](Cc1ccc(O)cc1)NC(C)=O)C(C)C)C(=O)N[C@@H](CCCCN)C(=O)N[C@@H](Cc1ccc(O)cc1)C(=O)N[C@@H](CC(C)C)C(=O)N[C@@H](CCC(=O)O)C(=O)N[C@H](C(=O)N[C@@H](CC(C)C)C(=O)N[C@@H](CC(C)C)C(=O)N[C@@H](Cc1ccc(O)cc1)C(=O)N[C@@H](CO)C(=O)N[C@@H](CCC(N)=O)C(=O)N[C@@H](CCC(N)=O)C(=O)N[C@@H](CCC(N)=O)C(=O)N[C@@H](CC(C)C)C(=O)N[C@@H](C)C(=O)N[C@@H](CCCCN)C(=O)N[C@@H](Cc1ccc(O)cc1)C(=O)N[C@@H](Cc1c[nH]c2ccccc12)C(=O)N[C@@H](CCC(=O)O)C(=O)N[C@@H](C)C(=O)N[C@@H](Cc1ccccc1)C(=O)N[C@@H](CC(C)C)C(N)=O)[C@@H](C)O [cSNX1.3],nuclear-localized EGFR,[1],inhibits the nuclear localization of EGFR; also recorded: loss of nuclear-localized EGFR
same,observable toxicity,[2],without observable toxicity; also recorded: no observable toxicity; also recorded: lack of observable toxicity in normal tissues
same,impact on cell viability / growth,CHO cells,almost no impact
same,"weight, behavior, or grooming",[3],"No difference in weight, behavior, or grooming was observed"
same,sensitivity (cell viability),MDA-MB-231 cells,sensitive
same,Fat Pad pathology,[4]; mouse 6.13.7 (cSNX1.3),Mammary adenomatous to lobular (atypical) hyperplasia; In situ mammary adenocarcinoma
same,Tumor pathology,[4]; mouse 6.13.7 (cSNX1.3),(R2) Mammary adenocarcinoma (cystic)
same,Fat Pad pathology,[4]; mouse 6.4.L (cSNX1.3),Mammary adenomatous to lobular (atypical) hyperplasia; In situ mammary adenocarcinoma; Focal granulomatous mastitis
same,Tumor pathology,[4]; mouse 6.4.L (cSNX1.3),(L4) Mammary adenomatous to lobular (atypical) hyperplasia; Adenoma; In situ mammary adenocarcinoma; also recorded: (R4) Mammary adenomatous to lobular (atypical) hyperplasia; Cystic ectasia
same,Fat Pad pathology,[4]; mouse 6.9.LR (cSNX1.3),Mammary adenomatous to lobular (atypical) hyperplasia; In situ mammary adenocarcinoma
same,Tumor pathology,[4]; mouse 6.9.LR (cSNX1.3),(L4) Mixed malignant tumor (fibrous component)
same,Fat Pad pathology,[4]; mouse 7.1.9 (cSNX1.3),Mammary adenomatous to lobular (atypical) hyperplasia; In situ cystic (small) mammary adenocarcinoma
same,Tumor pathology,[4]; mouse 7.1.9 (cSNX1.3),(L4) Mammary adenomatous to lobular (atypical) hyperplasia; also recorded: (R4) Mammary adenocarcinoma
